Experiments:
CsACT = CsACT (Cucumis sativus, UniProt A0A097IYL7); experiment: acetyltransferase assay, LC-MS of product; type: biochemical; conditions: 400 μM acetyl-CoA, 400 μM substrate, pH 7.5, 31°C
CmACT = CmACT (Cucumis melo, UniProt A0A1S3CAV7); experiment: acetyltransferase assay, LC-MS of product; type: biochemical; conditions: 400 μM acetyl-CoA, 400 μM substrate, pH 7.5, 31°C

| SMILES | acetyltransferase assay, LC-MS of product (CsACT) | acetyltransferase assay, LC-MS of product (CmACT; product CuB) | acetyltransferase assay, LC-MS of product (CmACT) |
| --- | --- | --- | --- |
| CC(C)(O)/C=C/C(=O)[C@](C)(O)[C@H]1[C@H](O)C[C@@]2(C)[C@@H]3CC=C4[C@@H](C[C@H](O)C(=O)C4(C)C)[C@]3(C)C(=O)C[C@]12C [CuD] | acylate a wide range of substrates (e.g., CuD, CuI, and deacetyl CuC) | able to acetylate the cucurbitacin precursors CuD and CuI | – |
| CC(C)(O)/C=C/C(=O)[C@](C)(O)[C@H]1[C@H](O)C[C@@]2(C)[C@@H]3CC=C4[C@@H](C=C(O)C(=O)C4(C)C)[C@]3(C)C(=O)C[C@]12C [CuI] | – | – | acylate a wide range of substrates (e.g., CuD, CuI, and deacetyl CuC) |
| CC(C)(O)/C=C/C(=O)[C@](C)(O)[C@H]1[C@H](O)C[C@@]2(C)[C@@H]3CC=C4[C@@H](CC[C@H](O)C4(C)C)[C@]3(CO)C(=O)C[C@]12C [deacetyl CuC] | acylate a wide range of substrates (e.g., CuD, CuI, and deacetyl CuC) | – | – |
